Experimental data: patent publication US20220185832A1, “CD73 INHIBITORS” (BioArdis LLC, priority 2019, published 2022)

molecular target: T1, Recombinant Human 5′-Nucleotidase (CD73) (Homo sapiens, UniProt P21589); test: CD73 Enzyme Assay; format: biochemical; conditions: 0.5 nM human CD73, 30 μM AMP, PiColorLock phosphate detection, OD 635 nm; read-out: Potency (IC50)
T1 construct: CHO derived CD73 (Trp27-Lys547), with a C-terminal 6-His tag; 6-His (C); purchased R&D 5795-EN; host or cells: CHO
T1 sequence (P21589 27-547): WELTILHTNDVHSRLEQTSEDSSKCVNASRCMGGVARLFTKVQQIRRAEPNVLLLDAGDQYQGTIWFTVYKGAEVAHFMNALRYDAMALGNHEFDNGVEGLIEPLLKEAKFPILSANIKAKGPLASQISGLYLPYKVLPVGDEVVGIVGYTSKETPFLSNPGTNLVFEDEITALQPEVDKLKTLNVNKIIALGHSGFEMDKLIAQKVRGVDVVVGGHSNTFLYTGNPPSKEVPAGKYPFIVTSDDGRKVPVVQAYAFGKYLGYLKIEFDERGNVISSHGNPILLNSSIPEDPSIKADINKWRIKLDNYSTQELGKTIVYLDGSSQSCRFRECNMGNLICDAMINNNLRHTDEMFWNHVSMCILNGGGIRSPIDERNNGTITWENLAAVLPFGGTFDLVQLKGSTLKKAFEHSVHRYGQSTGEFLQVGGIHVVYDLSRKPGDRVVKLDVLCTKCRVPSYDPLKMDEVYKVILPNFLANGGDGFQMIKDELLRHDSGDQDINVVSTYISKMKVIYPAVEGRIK
Source text: Soluble recombinant CD73 catalyzes the conversion of adenosine monophosphate (AMP) to adenosine and inorganic phosphate. The phosphate detection reagent, PiColorLock™ (Innova Bioscience, Cat #303-0125) is based on the change in absorbance of the dye malachite green in the presence of inorganic phosphate (Pi) and this property can be exploited to measure any enzyme that generates Pi. Recombinant Human 5′-Nucleotidase (CD73) (R&D #5795-EN, CHO derived CD73 (Trp27-Lys547), with a C-terminal 6-His tag) was used in the enzymatic assay. This assay was run in a 384-well plate format (Corning® NBS™ 384 well plates, Cat #3640). The basic assay procedure involves two steps: 1) Enzyme reaction: The CD73 enzyme (R&D #5795-EN) is incubated in the presence or absence of compounds. AMP (sigma, cat #01930) is added to start the kinase reaction. 2) Detection step: “Gold mix” is added to the assay system, then stabilizers are added. After incubation the absorbance of the solution is read at OD 635 nm. The recorded OD signal is proportional to the enzyme activity.
Briefly, 25 μl human CD73 (0.5 nM final concentration) in the enzymatic buffer solutions (20 mM Tris, 25 mM NaCl, 1 mM MgCl2, pH 7.5, 0.005% Tween-20) were mixed with various concentrations of the test compound (dissolved in 100% DMSO). These solutions were incubated for 15 min at 25° C., and subsequently 25 μl AMP (30 μM final concentration) was added to start the reaction. The final reaction mixture of enzyme-substrate-compound was incubated for 20 min at 37° C. Meanwhile, “Gold mix” was prepared shortly before use by adding 1/100 vol. of accelerator to the PiColorLock™ Gold reagent. 12 μL/well of the “Gold mix” was added to assay plate containing 50 μL enzyme reaction buffer and incubated at 25° C. for 5 min. 5 μL/well stabilizer was added to the assay plate and incubated at 25° C. for 30 min. The absorbance of the well solutions was measured at 635 nm on a Spark 10M instrument (TECAN).
The percent (%) inhibition at each concentration of a compound was calculated relative to the OD value in the Max and Min control wells contained within each assay plate. The Max control wells contained enzyme and substrate as 0% inhibition, and the Min control wells only contained substrate without enzyme as 100% inhibition. The concentrations and percent inhibition values for a test compound are plotted and the concentration of the compound required to achieve 50% inhibition (IC50) was determined with a four-parameter logistic dose response equation.

SMILES	IC50
O=P(O)(O)CP(=O)(O)OC[C@H]1O[C@@H](c2ccc3c(NCc4ccccc4)ncnc3c2)[C@@H](F)[C@@H]1O [Compound 11, [({[(2R,3R,4S,5S)-5-[4-(benzylamino)quinazolin-7-yl]-4-fluoro-3-hydroxyoxolan-2-yl]methoxy}(hydroxy)phosphoryl)methyl]phosphonic acid]	> 1000 nM
O=P(O)(O)CP(=O)(O)OC[C@H]1O[C@H](c2ccc3c(NCc4ccccc4)nc(Cl)nc3c2)[C@@H](F)[C@@H]1O [Compound 14, [({[(2R,3R,4S, 5R)-5-[4-(benzylamino)-2-chloroquinazolin-7-yl]-4-fluoro-3-hydroxyoxolan-2-yl]methoxy}(hydroxy)phosphoryl)methyl]phosphonic acid]	> 1000 nM
CN(c1nc(Cl)nc2cc([C@@H]3O[C@H](COP(=O)(O)CP(=O)(O)O)[C@@H](O)[C@@H]3F)ccc12)C1CCCC1 [Compound 15, (((((2R,3R,4S,5S)-5-(2-chloro-4-(cyclopentyl(methyl)amino)quinazolin-7-yl)-4-fluoro-3-hydroxytetrahydrofuran-2-yl)methoxy)(hydroxy)phosphoryl)methyl)phosphonic acid]	100 to 999 nM
N#C[C@@]1(c2ccc3c(NCc4ccccc4)nc(Cl)nc3c2)O[C@H](COP(=O)(O)CP(=O)(O)O)[C@@H](O)[C@H]1O [Compound 16, (((((2R,3S,4R,5R)-5-(4-(benzylamino)-2-chloroquinazolin-7-yl)-5-cyano-3,4-dihydroxytetrahydrofuran-2-yl)methoxy)(hydroxy)phosphoryl)methyl)phosphonic acid]	> 1000 nM
O=P(O)(O)CP(=O)(O)OC[C@H]1O[C@@H](c2cc3nc(Cl)nc(NCc4ccccc4)c3cc2F)[C@H](O)[C@@H]1O [Compound 19, (((((2R,3S,4R,5S)-5-(4-(benzylamino)-2-chloro-6-fluoroquinazolin-7-yl)-3,4-dihydroxytetrahydrofuran-2-yl)methoxy)(hydroxy)phosphoryl)methyl)phosphonic acid]	100 to 999 nM
CCc1nc(NCc2ccccc2)c2ccc([C@@H]3O[C@H](COP(=O)(O)CP(=O)(O)O)[C@@H](O)[C@H]3O)cc2n1 [Compound 20, [({[(2R,3S,4R,5S)-5-[4-(benzylamino)-2-ethylquinazolin-7-yl]-3,4-dihydroxyoxolan-2-yl]methoxy}(hydroxy)phosphoryl)methyl]phosphonic acid]	100 to 999 nM
O=P(O)(O)CP(=O)(O)OC[C@H]1O[C@@H](c2ccc3c(NCC4CCOC4)nc(Cl)nc3c2)[C@H](O)[C@@H]1O (stereo partly drawn) [Compound 21, [({[(2R,3S,4R,5S)-5-[2-chloro-4-[(oxolan-3-ylmethyl)amino]quinazolin-7-yl]-3,4-dihydroxyoxolan-2-yl]methoxy}(hydroxy)phosphoryl)methyl]phosphonic acid]	10 to 99 nM
O=P(O)(O)CP(=O)(O)OC[C@H]1O[C@@H](c2ccc3c(N4CC5CCCC5C4)nc(Cl)nc3c2)[C@H](O)[C@@H]1O (stereo partly drawn) [Compound 24, [({[(2R,3S,4R,5S)-5-(2-chloro-4-{hexahydro-1H-cyclopenta[c]pyrrol-2-yl}quinazolin-7-yl)-3,4-dihydroxyoxolan-2-yl]methoxy}(hydroxy)phosphoryl)methyl]phosphonic acid]	< 10 nM
O=P(O)(O)CP(=O)(O)OC[C@H]1O[C@@H](c2ccc3c(NC4CCC(O)CC4)nc(Cl)nc3c2)[C@H](O)[C@@H]1O (stereo partly drawn) [Compound 26, (((((2R,3S,4R,5S)-5-(2-chloro-4-((4-hydroxycyclohexyl)amino)quinazolin-7-yl)-3,4-dihydroxytetrahydrofuran-2-yl)methoxy)(hydroxy)phosphoryl)methyl)phosphonic acid]	10 to 99 nM
COC1CCC(Nc2nc(Cl)nc3cc([C@@H]4O[C@H](COP(=O)(O)CP(=O)(O)O)[C@@H](O)[C@H]4O)ccc23)CC1 (stereo partly drawn) [Compound 27, [({[(2R,3S,4R,5S)-5-{2-chloro-4-[(4-methoxycyclohexyl)amino]quinazolin-7-yl}-3,4-dihydroxyoxolan-2-yl]methoxy}(hydroxy)phosphoryl)methyl]phosphonic acid]	100 to 999 nM
O=P(O)(O)CP(=O)(O)OC[C@H]1O[C@@H](c2ccc3c(N4CCCC4)nc(Cl)nc3c2)[C@H](O)[C@@H]1O [Compound 29, (((((2R,3S,4R,5S)-5-(2-chloro-4-(pyrrolidin-1-yl)quinazolin-7-yl)-3,4-dihydroxytetrahydrofuran-2-yl)methoxy)(hydroxy)phosphoryl)methyl)phosphonic acid]	10 to 99 nM
O=P(O)(O)CP(=O)(O)OC[C@H]1O[C@@H](c2ccc3c(N4CCc5ccccc54)nc(Cl)nc3c2)[C@H](O)[C@@H]1O [Compound 30, (((((2R,3S,4R,5S)-5-(2-chloro-4-(indolin-1-yl)quinazolin-7-yl)-3,4-dihydroxytetrahydrofuran-2-yl)methoxy)(hydroxy)phosphoryl)methyl)phosphonic acid]	100 to 999 nM
O=P(O)(O)CP(=O)(O)OC[C@H]1O[C@@H](c2cccc3c(NCc4ccccc4)nc(Cl)nc23)[C@H](O)[C@@H]1O [Compound 32, (((((2R,3S,4R,5S)-5-(4-(benzylamino)-2-chloroquinazolin-8-yl)-3,4-dihydroxytetrahydrofuran-2-yl)methoxy)(hydroxy)phosphoryl)methyl)phosphonic acid]	100 to 999 nM
O=P(O)(O)CP(=O)(O)OC[C@H]1O[C@@H](c2ccc3c(OC4CCCC4)nc(Cl)nc3c2)[C@H](O)[C@@H]1O [Compound 33, (((((2R,3S,4R,5S)-5-(2-chloro-4-(cyclopentyloxy)quinazolin-7-yl)-3,4-dihydroxytetrahydrofuran-2-yl)methoxy)(hydroxy)phosphoryl)methyl)phosphonic acid]	100 to 999 nM
C[C@@]1(O)[C@H](O)[C@@H](COP(=O)(O)CP(=O)(O)O)O[C@H]1c1ccc2c(NCc3ccccc3)nc(Cl)nc2c1 [Compound 34, (((((2R,3R,4R,5S)-5-(4-(benzylamino)-2-chloroquinazolin-7-yl)-3,4-dihydroxy-4-methyltetrahydrofuran-2-yl)methoxy)(hydroxy)phosphoryl)methyl)phosphonic acid]	> 1000 nM
O=P(O)(O)CP(=O)(O)OC[C@H]1O[C@@H](c2ccc3c(N4CCC(c5ccccc5)C4)nc(Cl)nc3c2)[C@H](O)[C@@H]1O (stereo partly drawn) [Compound 35, (((((2R,3S,4R,5S)-5-(2-chloro-4-(3-phenylpyrrolidin-1-yl)quinazolin-7-yl)-3,4-dihydroxytetrahydrofuran-2-yl)methoxy)(hydroxy)phosphoryl)methyl)phosphonic acid]	10 to 99 nM
O=P(O)(O)CP(=O)(O)OC[C@H]1O[C@@H](c2ccc3c(N4CCc5ccccc5C4)nc(Cl)nc3c2)[C@H](O)[C@@H]1O [Compound 36, [({[(2R,3S,4R,5S)-5-[2-chloro-4-(3,4-dihydro-1H-isoquinolin-2-yl)quinazolin-7-yl]-3,4-dihydroxyoxolan-2-yl]methoxy}(hydroxy)phosphoryl)methyl]phosphonic acid]	10 to 99 nM
O=P(O)(O)CP(=O)(O)OC[C@H]1O[C@@H](c2ccc3c(N[C@H]4CCOC4)nc(Cl)nc3c2)[C@H](O)[C@@H]1O [Compound 37, (((((2R,3S,4R,5S)-5-(2-chloro-4-(((S)-tetrahydrofuran-3-yl)amino)quinazolin-7-yl)-3,4-dihydroxytetrahydrofuran-2-yl)methoxy)(hydroxy)phosphoryl)methyl)phosphonic acid]	10 to 99 nM
